Experiment [1] has as its system Ehrlich ascites carcinoma (EAC) cells. Kind of experiment: Tumor growth inhibition of EAC cells inoculated intraperitoneally in mice (Trypan Blue cell count). The experiment is classed as in vivo. As for the experimental part:
The Effect of Nano-Methylglyoxal on the Excessive Proliferation of Cancerous Cells in Mice was Investigated as Follows: • a) Mice bearing Ehrlich ascites carcinoma cells (No. of EAC cell inoculated each mouse=1×10^6) were treated intravenously with nano-methylglyoxal in normal saline to observe the effect of cell proliferation. Treatment started after 24 hrs, of inoculation in mice intravenously with three different doses of nanoMG in solution. In first group every day each mouse received 25 μl nanoMG solution (containing 2.5 μg methylglyoxal), in second group each mouse received 50 μl nanoMG solution (containing 5 μg methylglyoxal) and in third group each mouse received 100 μl nanoMG solution (containing 10 μg methylglyoxal). Mice in the negative control group were similarly treated intravenously with normal saline and the positive control groups were treated intravenously with bare methylglyoxal (20 mg/kg body weight/day) in normal saline. Each group contains six mice. Each set of experiment was repeated four times. Melatonin (0.25 mg/kg body weight/day), creatine (150 mg/kg body weight/day) and Ascorbic acid (50 mg/kg body weight/day) were fed orally to each mouse. Treatment was continued for consecutive 8 days (Table-5, Table-6). […]

For experiment [2], the system named is sarcoma-180 cells. Briefly: Measurement of tumor volume, Sarcoma-180 tumour in left hind leg of mice. The class given is in vivo, Swiss albino female mice. As to conditions: bare methylglyoxal 20 mg/kg body weight/day iv, five days a week. The method, then:
In the present invention, effect of modified nanomethylGlyoxal, against tumor in mice, have been studied. Briefly, Swiss albino female mice aged 4-6 weeks weighing 18-20 g were taken. Each group contained four mice. Tumors were developed in the left hind leg of a mouse by intra-muscular injection of sarcoma-180 cells (approximately 2×10^6 cells in each mouse). Each set of experiment was repeated 4 times. Drug was administered to the mice intravenously, five days a week. Polymer conjugated methylglyoxal (Nano-MG) was administered intravenously at an amount of 0.4 mg/kg body weight/day. One group received bare methylglyoxal (20 mg/kg body weight/day). Drug was administered after 72 hours of inoculation of Sarcoma-180 tumour in the treated group. Treatment was continued for four weeks.

Experiment [3] has as its system peritoneal macrophages. Kind of experiment: Peritoneal macrophage count in treated mice. As to conditions: for Peritoneal macrophage Count (×10^6): bare MG 20 mg/kg body weight/day iv. The experiment is classed as in vivo. As for the experimental part: Values in the bracket denote dose at mg/kg body wt/day • Ehrlich ascites carcinoma (EAC) cells developed in the intraperitoneal cavity of mouse were collected in different time intervals. After washing with normal saline the cells were re-suspended in phosphate buffered saline. […] Number of Sarcoma-180 cells inoculated to each mouse was 1×10^6. The tumor bearing mice were treated with modified nano-methylglyoxal (present formulation) in normal saline through intravenous route to study the tumor growth inhibition by nano-methylglyoxal. Treatment started after 7 days of inoculation in mice intravenously with 50 μl nanoMG in solution (containing 5 μg methylglyoxal). Mice in the negative control group were similarly treated intravenously with normal saline and the positive control groups were treated intravenously with bare methylglyoxal (20 mg/kg body weight/day) in normal saline. Each group contained six mice. Each set of experiment was repeated four times. melatonin (0.25 mg/kg body weight/day), creatine (150 mg/kg body weight/day) and Ascorbic acid (50 mg/kg body weight/day) were fed orally to each mouse everyday. Treatment was given with single daily dose for consecutive 12 days. […] Treatment started after 7 days of inoculation in mice intravenously with 50 μl nanoMG in solution (containing 5 μg methylglyoxal). Treatment was continued for 20 doses (six doses per week) in 23 days. Melatonin (0.25 mg/kg body weight/day), creatine (150 mg/kg body weight/day) and Ascorbic acid (50 mg/kg body weight/day) were fed orally to each mouse. • d) Solid tumor bearing mice treated with nanoMG as described previously were sacrificed for the isolation of macrophages. Briefly, RPMI-1640 was injected in the peritoneal cavity of mouse and peritoneal macrophages were isolated and centrifuged and resuspended in RPMI-1640+10% FBS and used further for immunomodulatory studies. […] In the present invention, effect of modified nanomethylGlyoxal, against tumor in mice, have been studied. Briefly, Swiss albino female mice aged 4-6 weeks weighing 18-20 g were taken. Each group contained four mice. […]

Experiment [4] concerns peritoneal macrophages. Kind of experiment: Superoxide anion generation (production of reduced NBT) by peritoneal macrophages. Particulars: bare MG 20 mg/kg body weight/day iv. The class given is in vivo, mice. The method, then: Values in the bracket denote dose at mg/kg body wt/day • Ehrlich ascites carcinoma (EAC) cells developed in the intraperitoneal cavity of mouse were collected in different time intervals. After washing with normal saline the cells were re-suspended in phosphate buffered saline. […] Number of Sarcoma-180 cells inoculated to each mouse was 1×10^6. The tumor bearing mice were treated with modified nano-methylglyoxal (present formulation) in normal saline through intravenous route to study the tumor growth inhibition by nano-methylglyoxal. Treatment started after 7 days of inoculation in mice intravenously with 50 μl nanoMG in solution (containing 5 μg methylglyoxal). Mice in the negative control group were similarly treated intravenously with normal saline and the positive control groups were treated intravenously with bare methylglyoxal (20 mg/kg body weight/day) in normal saline. Each group contained six mice. Each set of experiment was repeated four times. melatonin (0.25 mg/kg body weight/day), creatine (150 mg/kg body weight/day) and Ascorbic acid (50 mg/kg body weight/day) were fed orally to each mouse everyday. Treatment was given with single daily dose for consecutive 12 days. […] Treatment started after 7 days of inoculation in mice intravenously with 50 μl nanoMG in solution (containing 5 μg methylglyoxal). Treatment was continued for 20 doses (six doses per week) in 23 days. […]

The subject of experiment [5] is Sarcoma-180 cells. As to conditions: sarcoma-180 cells injected concomitantly with Methylglyoxal; cited from earlier work.
The test system of experiment [6] is Glyceraldehyde-3-Phospahte Dehydrogenase. Particulars: cited from earlier work.
Experiment [7] concerns Mitochondrial Complex I. Particulars: cited from earlier work.
Experiment [8] deals with Sarcoma. Kind of experiment: Sarcoma-bearing mice: Creatine content, CK activity and tumor size. The experiment is classed as in vivo. An excerpt: We also investigated the status of Creatine and CK in a few post-operative tissue samples from human patients, and similar to the results of animal tissues, the Creatine content and CK activity were much reduced in both human Fibrosarcoma and Gastro-Intestinal Tract Malignancy, compared to healthy control tissues.

Experiment [9] deals with L1236. As to conditions: cited from earlier work.
For experiment [10], the system named is Ehrlich Ascites Carcinoma (EAC) cells. Briefly: Oral Melatonin on EAC cells implanted intra-peritoneally in female mice. The class given is in vivo. As to conditions: Melatonin 50 mg/kg body wt. The source says: With these rationales, Melatonin has been applied to treat cancer in both animal and human in our laboratory and has shown significant improvement over the formulations without Melatonin. […] The effects of oral supplementation of Melatonin on growth of Ehrlich Ascites Carcinoma (EAC) cells implanted intra-peritoneally in female mice were studied in our lab. […] It has strong antioxidant properties and anticancer and onco-static action. Melatonin has potential anticancer activity whether given alone or in association with cancer chemotherapy. […] In this study, 30 patients with untreatable metastatic solid tumors were treated with daily 30 mg oral Melatonin in conjunction with low doses of antitumor cytokines. […] In addition Melatonin may have other biological effects, which could be useful in palliative therapy of Cancer.

Like-named read-outs stand apart in the source and are kept apart here.

With `CC(=O)C=O` [Bare-methylglyoxal, Methylglyoxal], in [1] (Bare-methylglyoxal 20 mg/kg body weight/day iv, 8 consecutive doses from day 1, in million cells), the “No. of cells on day 9” value amounted to 29 ± 2.9. The “Sarcoma-180 + Bare-MG Volume of tumour (c.c.)” value in [2] (day 12) was found to be 1 ± 0.1 c.c; in experiment [2] (day 16), 1.4 ± 0.05 c.c; in [2] (day 21), 2 ± 0.15 c.c; in experiment [2] (day 26) it was 2 ± 0.17 c.c; in [2] (day 31) it was 2.73 ± 0.27 c.c. Further, the “Macrophage count increase with respect to untreated tumour bearing batch” value in [3] (bare-MG treated mice (20 mg/kg/day iv)) was “two fold in bare-MG treated mice”. Further, the “Peritoneal macrophage Count (×10^6)” value is given as 10.88 ± 1.15 ×10^6 in experiment [3] (normal mice) and 12.91 ± 1.46 ×10^6 in experiment [3] (sarcoma tumour bearing mice). For the same molecule, the figures for the “Superoxide anion generation Production of reduced NBT” value in experiment [4] (normal mice) and in [4] (sarcoma tumour bearing mice) were 243 ± 2.82 µmol and 317.5 ± 10.60 µmol, respectively. For the same molecule, in [5], the Tumor development entry is “No tumor developed”. Besides, the Enzyme inhibition result is recorded as “inhibits” in experiment [6] (enzyme of malignant cells), “no inhibitory effect” in experiment [6] (enzyme of normal cells), “inhibits” in experiment [7] (enzyme of malignant cells) and “no inhibitory effect” in [7] (enzyme of normal cells).

On to `CN(CC(=O)O)C(=N)N` [Creatine], for which the “Effect of Creatine administration on the effect of Methylglyoxal and Ascorbic Acid” value in [8] is “significantly augmented”.

On to `NC1=NCCN1CC(=O)O` [Cyclocreatine, cyclocreatine], for which the Inhibition of proliferation result in [9] is reported as “nearly entirely”.

Turning to `COc1ccc2[nH]cc(CCNC(C)=O)c2c1` [Melatonin], the “Effect of introducing melatonin on tumor growth inhibition of EAC cells” value in experiment [1] (melatonin in combination with ascorbic acid and creatine, with modified NanoMG) was 2. Efficacy is enhanced further when melatonin is introduced in combination with ascorbic acid and creatine for tumor growth inhibition of EAC cells in mice. Besides, in [10], the “Survival of the treated mice” value is given as “increased the survival”; the “Viability and volume of Ehrlich Ascites Carcinoma cells” value is “reduced the viability and volume”.

(Values after patent US20160243056A1, “Sustained Release Formulations Containing Methylglyoxal and Their Therapeutic Applications” (priority 2013, published 2016).)
